Here are results for 13 compounds from PubChem BioAssay (NCI).

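In this assay, cells in 96-well plates receive the compound at five concentrations for 48 hours. Endpoints are linearly interpolated between the surrounding concentrations. Abbreviation: GI50, concentration required for 50% inhibition of growth. TGI marks complete inhibition of growth.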 Bounds are passed on as bounds.

Some test systems named below: HOP-92 NSCLC; HT29 colon; MOLT-4 leukemia; NCI-H522 lung; OVCAR-5 ovarian; SF-268 CNS; SNB-75 CNS; UACC-257 melanoma; SK-MEL-2 melanoma; SR leukemia.
Common to all, as to test: growth of human tumour cells (NCI), 48 h

In the case of `COc1ccccc1CCc1cc(OC)c(OC)c(OC)c1`, the TGI with HOP-92 NSCLC is more than 100 µM; with HT29 colon it was more than 100 µM; with MOLT-4 leukemia, 59.9 µM; in the assay with NCI-H522 lung, more than 100 µM; in the assay with OVCAR-5 ovarian, 51.3 µM; with SF-268 CNS, more than 100 µM. Also, the TGI in the assay on SNB-75 CNS and in the assay on UACC-257 melanoma was more than 100 µM throughout.

`NCC1Nc2ccccc2[C@@H](O)C1O` (some centres not stated): the TGI in the assay on HOP-92 NSCLC, in the assay on HT29 colon, with MOLT-4 leukemia, with OVCAR-5 ovarian, in the assay on SF-268 CNS and in the assay with SK-MEL-2 melanoma was more than 100 µM in each case. Besides, the TGI in the assay on SNB-75 CNS, in the assay on SR leukemia and in the assay on UACC-257 melanoma was more than 100 µM each time.

As for `Clc1nc(Cl)c(Cl)c(-c2ccccc2)n1`, the TGI in the assay with MOLT-4 leukemia is 3.99 µM; in the assay on NCI-H522 lung it was 3.2 µM; in the assay with OVCAR-5 ovarian it was 42.1 µM; in the assay on SF-268 CNS, 61.6 µM; in the assay on SK-MEL-2 melanoma it was 51.7 µM; with SNB-75 CNS it was 21.5 µM. The TGI with UACC-257 melanoma came out at 44.2 µM.

`CCOc1ccccc1N=Nc1ccc2oc(=O)c(C(=O)Nc3cccc(C)c3)cc2c1`: the TGI with HT29 colon is more than 100 µM; with MOLT-4 leukemia, 80.2 µM; with NCI-H522 lung it was 57.1 µM; with OVCAR-5 ovarian it was more than 100 µM; with SF-268 CNS it was more than 100 µM; with SK-MEL-2 melanoma, 46.9 µM. Further, the TGI in the assay with SNB-75 CNS and in the assay with UACC-257 melanoma was more than 100 µM throughout.

Consider `O=C1C2C3C=C4c5ccccc5N(c5ccccc5)C4(C2C(=O)N1Cc1ccccc1)C1C(=O)N(Cc2ccccc2)C(=O)C31` (configuration not stated), for which the TGI with HOP-92 NSCLC, in the assay with HT29 colon, in the assay with MOLT-4 leukemia, with OVCAR-5 ovarian, in the assay on SF-268 CNS and with SK-MEL-2 melanoma was more than 100 µM each time. Moreover, the TGI with SNB-75 CNS, in the assay with SR leukemia and with UACC-257 melanoma was more than 100 µM throughout.

Turning to `COc1ccc(Nc2c3ccccc3nc3occc23)cc1`, the GI50 in the assay on HOP-92 NSCLC is 7.36 µM; in the assay on HT29 colon, 1.49 µM; in the assay on MOLT-4 leukemia, 1.55 µM; with NCI-H522 lung, 2.35 µM; with OVCAR-5 ovarian, 13.7 µM; in the assay on SF-268 CNS, 3.68 µM. Further, the GI50 in the assay on SNB-75 CNS was 9.4 µM; in the assay with SR leukemia it was more than 100 µM; in the assay on UACC-257 melanoma, 9.98 µM. For the same compound, the TGI is 31.5 µM with HOP-92 NSCLC; more than 33 µM in the assay on MOLT-4 leukemia; more than 100 µM in the assay with NCI-H522 lung; more than 63.4 µM with OVCAR-5 ovarian; 34 µM in the assay with SF-268 CNS; more than 100 µM in the assay on SNB-75 CNS. Further, the TGI in the assay with SR leukemia is more than 100 µM; in the assay with UACC-257 melanoma, 28.9 µM.

Regarding `Cc1cc(S(=O)(=O)Nc2nnc(-c3ccccc3)c(-c3ccccc3)n2)c(SCC(N)=O)cc1Cl`, the GI50 with HT29 colon was more than 100 µM; in the assay on MOLT-4 leukemia it was 24.4 µM; with NCI-H522 lung it was 22.9 µM; with OVCAR-5 ovarian, more than 100 µM; in the assay on SF-268 CNS, 37.6 µM; in the assay on SK-MEL-2 melanoma, 30.5 µM. Moreover, the GI50 in the assay with SNB-75 CNS was more than 100 µM; in the assay with SR leukemia, 24.1 µM; in the assay with UACC-257 melanoma, 33.1 µM. Besides, the TGI is more than 100 µM in the assay on HT29 colon; 49.2 µM in the assay on MOLT-4 leukemia; 50.9 µM in the assay with NCI-H522 lung; more than 100 µM with OVCAR-5 ovarian; more than 100 µM with SF-268 CNS; 49.2 µM with SK-MEL-2 melanoma. For the same compound, the values for the TGI in the assay on SNB-75 CNS, in the assay with SR leukemia and in the assay with UACC-257 melanoma were more than 100 µM, 47.6 µM and 97.6 µM, respectively.

For the compound `Cc1cc(Cl)ccc1N=C1NC(=O)C(CC(=O)Nc2ccc([N+](=O)[O-])cc2[N+](=O)[O-])S1` (configuration not stated), the TGI in the assay on HT29 colon is more than 100 µM; in the assay with MOLT-4 leukemia, 55.5 µM; in the assay with OVCAR-5 ovarian, 86.8 µM; in the assay with SF-268 CNS, more than 100 µM; in the assay with SK-MEL-2 melanoma, 46.1 µM; in the assay on SNB-75 CNS, 44.2 µM. In the assay on UACC-257 melanoma, this compound had a TGI of 90.3 µM.

`COc1cc(/C=C/c2cc(/C=C/c3ccc(O)c(OC)c3)n(C(=O)Nc3ccc(F)c(Cl)c3)n2)ccc1O`: the GI50 is 1.03 µM in the assay on HOP-92 NSCLC; 1.31 µM in the assay with HT29 colon; 0.282 µM in the assay with MOLT-4 leukemia; 1.82 µM with OVCAR-5 ovarian; 0.0415 µM with SR leukemia; 1.18 µM in the assay with UACC-257 melanoma. Moreover, the TGI with HOP-92 NSCLC amounted to 5.89 µM; in the assay on HT29 colon, 4.26 µM; with MOLT-4 leukemia, 1.4 µM; in the assay with OVCAR-5 ovarian it was 6.87 µM; in the assay on UACC-257 melanoma, 5.32 µM.

For `Cc1cccc(NC(=O)/C(=N\NC(C)(C)C)C2NC(=S)NC2=O)c1C` (configuration not stated), the TGI in the assay on MOLT-4 leukemia, with OVCAR-5 ovarian, in the assay with SK-MEL-2 melanoma and in the assay on UACC-257 melanoma was more than 100 µM each time.

Turning to `Clc1ccc(C2=Nn3c(COc4ccccc4Cl)nnc3SC2)c(Cl)c1`, the GI50 with HOP-92 NSCLC was 39 µM; in the assay on HT29 colon, 14 µM; with MOLT-4 leukemia, 22.3 µM; in the assay on NCI-H522 lung, 22.6 µM; in the assay on OVCAR-5 ovarian, 35.1 µM; in the assay on SF-268 CNS, 31.8 µM. Besides, the GI50 in the assay with SK-MEL-2 melanoma is 25.1 µM; with UACC-257 melanoma, 20.8 µM. The TGI is more than 100 µM in the assay with HOP-92 NSCLC; 27 µM in the assay on HT29 colon; more than 100 µM in the assay on MOLT-4 leukemia; 80.3 µM in the assay on NCI-H522 lung; 87.1 µM in the assay with OVCAR-5 ovarian; more than 100 µM in the assay on SF-268 CNS. The TGI in the assay with SK-MEL-2 melanoma stood at 57.4 µM; in the assay with UACC-257 melanoma it was 60.9 µM.

Turning to `Cc1cccc(NC(=O)C(=O)C(C(=O)c2ccc3ccccc3c2)C2OC(=O)c3ccccc32)c1C` (configuration not stated), the TGI in the assay with HOP-92 NSCLC stood at 36.8 µM; in the assay with HT29 colon, 64.4 µM; in the assay with MOLT-4 leukemia it was 32.2 µM; in the assay on NCI-H522 lung, 43.5 µM; in the assay on OVCAR-5 ovarian, 54.7 µM; in the assay with SF-268 CNS, 53.6 µM. Besides, the TGI in the assay on SK-MEL-2 melanoma was 29.8 µM; in the assay with SNB-75 CNS, 42.9 µM; in the assay with UACC-257 melanoma, 35.1 µM.

Take `CC1(C)SCc2nc3ncccc3n21`: the TGI with HOP-92 NSCLC, in the assay with HT29 colon, in the assay on MOLT-4 leukemia, with NCI-H522 lung, in the assay on OVCAR-5 ovarian and with SF-268 CNS was more than 100 µM in each case. For the same compound, the TGI in the assay on SK-MEL-2 melanoma, in the assay with SNB-75 CNS and in the assay with UACC-257 melanoma was more than 100 µM each time.
